Data on 1 compound can be found in patent US6713274B2, “Method for identifying modulators of sulfotransferase activity” (The Regents of the University of California, priority 2002, dated 2004).

The target of one assay is T1, GST-3 (Homo sapiens, UniProt Q8NCG5).
T1 sequence (Q8NCG5 1-386): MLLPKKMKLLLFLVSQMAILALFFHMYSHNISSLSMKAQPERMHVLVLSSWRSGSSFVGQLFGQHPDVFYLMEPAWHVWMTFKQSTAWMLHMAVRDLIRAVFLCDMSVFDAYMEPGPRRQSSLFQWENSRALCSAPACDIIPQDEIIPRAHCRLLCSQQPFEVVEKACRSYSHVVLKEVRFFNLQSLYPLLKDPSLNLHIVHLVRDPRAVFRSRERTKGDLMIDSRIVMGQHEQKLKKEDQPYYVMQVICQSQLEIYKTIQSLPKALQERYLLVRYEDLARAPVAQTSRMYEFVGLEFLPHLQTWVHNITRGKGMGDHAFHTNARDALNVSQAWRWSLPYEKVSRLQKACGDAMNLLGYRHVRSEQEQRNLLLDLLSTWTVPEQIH
As to the kind of experiment: Dot-blot assay for GST-3 (sulfation of β-GlcNAc-PAA with 35S-PAPS). Type of assay: biochemical. The note with it: FIG. 5B Lineweaver-Burk plot. As for the experimental part: A typical assay included an appropriate volume of enzyme solution, 0.6-1.0 μg of β-GlcNAc-PAA, 0.1% Triton X-100, 10% glycerol, 4 mM Mg(OAc)2, 10 mM NaF, 1 mM ATP, in 30 mM HEPES-NaOH (pH 6.0), diluted to a total volume of 25 μL in a 96-well plate. Reactions were initiated with 2.0 μM ^35S-PAPS (0.1-0.5 μCi per reaction), incubated at 25° C. for 2 h, and terminated with 30 μL of MeOH. A 15-μL aliquot was removed from each well and diluted 100-fold, and 15-25 μL of the solution were transferred to the wells of the dot-blot apparatus. A vacuum was applied, and the wells were washed and eluted as described below. Control reactions with heat-killed enzyme were included to monitor background binding of ^35S-PAPS and ^35S-SO4^2− to the membrane after washing.
(§1) Hybond-N+ membranes were pre-wetted with H2O and Hybond-P membranes were pre-wetted with MeOH before assembling the dot-blot apparatus. The quenched and diluted reactions were added to the wells, and a vacuum was applied to load products onto the membrane. To elute ^35S-PAPS while retaining ^35S-labeled heparin or GlcNAc-PAA on the membrane, the wells were washed twice with 40 μL of PAPS elution buffer (EB) ((NH4)2SO4 pH 3.0), while maintaining a gentle vacuum. […] The amount of ^35S-labeled product associated with the membrane was then quantified by phosphorimaging.

Assay [1] addresses T2, sulfotransferase domain of human NDST-1 (Homo sapiens, UniProt P52848).
T2 construct: A plasmid containing the sulfotransferase domain of human NDST-1 fused to glutathione S-transferase; glutathione S-transferase (cleaved yes); made in house
T2 sequence (P52848 599-882 limits assumed): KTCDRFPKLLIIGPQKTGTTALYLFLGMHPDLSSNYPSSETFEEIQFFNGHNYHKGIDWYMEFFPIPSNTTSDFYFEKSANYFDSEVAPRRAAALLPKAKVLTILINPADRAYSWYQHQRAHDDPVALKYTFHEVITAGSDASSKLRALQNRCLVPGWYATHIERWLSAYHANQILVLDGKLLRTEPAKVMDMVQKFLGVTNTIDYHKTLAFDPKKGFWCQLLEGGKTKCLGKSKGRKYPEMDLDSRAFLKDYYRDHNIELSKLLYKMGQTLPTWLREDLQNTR
As to the kind of experiment: Dot-blot assay for NDST-1 (sulfation of de-N-sulfated heparin with 35S-PAPS). Type of assay: biochemical. The note with it: FIG. 5A Lineweaver-Burk plot. As for the experimental part: For the NDST-1 assay, de-N-sulfated heparin (0.02-0.1 mg) and 0.1 μg of enzyme were added to 50 mM HEPES-NaOH (pH 7.0), 0.15 M NaCl, 0.75 mg/mL protamine, 0.4% Triton X-100, 15% glycerol in a total volume of 25 μL in a 96-well plate. Reactions were initiated with 0.15 μM ^35S-labeled PAPS (“^35S-PAPS”)(0.1-0.5 μCi per reaction), incubated at 25° C. for 15 min, and terminated by the addition of 30 μL of MeOH. A 15-μL aliquot was removed from each well and diluted 100-fold, and 15-25 μL were then transferred to the wells of the dot-blot apparatus. A vacuum was applied, and the wells were washed and eluted as described below. Control reactions with heat-killed (100° C., 5 min) enzyme were included to monitor background binding of ^35S-PAPS and ^35S-SO4^2− to the membrane after washing.
as §1

As for `Nc1ncnc2c1ncn2[C@@H]1O[C@H](COP(=O)(O)O)[C@@H](OP(=O)(O)O)[C@H]1O` [3′,5′-ADP], the “mode of enzyme inhibition (double reciprocal plots of signal versus PAPS concentration)” value (at GST-3; in assay [1]) was “competitive inhibitor” in each case.
